Where two headings read alike, the source gives them in different places.
Tested on: colonic aberrant crypt foci (ACF)
Conditions: male F344 rats
Procedure: Male F344 rats at 8 weeks of age treated with AOM (15 mg/Kg BW) and exposed to 2% DSS for three days. […] Further, the inflammation was scored by following below criteria:
ACF form before colorectal polyps and are an indicator of the potential for cancer.

Q: Which “4 or >multi-crypt AC/colon (Mean ± SEM)” value (200 ppm in diet) does the source give for `CC1(C)Cc2c(-c3ccccc3)c(-c3ccc(Cl)cc3)c(CC(=O)NCC(=O)O)n2C1` [LFA-9, licofelone-glycine] here?
A: 23.5 ± 2.1

Q: And the “% Inhibition (4 or >multi-crypt AC/colon)” value (200 ppm in diet)?
A: 30%

Q: What about the “% Inhibition (total ACF/colon)” value (200 ppm in diet) of the same compound?
A: 29.5%

Q: And the “Total ACF/Colon (Mean ± SEM)” value (200 ppm in diet)?
A: 110 ± 6.1

Q: And the “4 or >multi-crypt AC/colon (Mean ± SEM)” value (400 ppm in diet)?
A: 18.3 ± 2.0

Q: And the “% Inhibition (4 or >multi-crypt AC/colon)” value (400 ppm in diet)?
A: 45.4%

Q: And the “% Inhibition (total ACF/colon)” value (400 ppm in diet)?
A: 44.2%

Q: What about the “Total ACF/Colon (Mean ± SEM)” value (400 ppm in diet) of the same compound?
A: 84 ± 5.3

Q: And the “4 or >multi-crypt AC/colon (Mean ± SEM)” value (600 ppm in diet)?
A: 13.5 ± 1.7

Q: What about the “% Inhibition (4 or >multi-crypt AC/colon)” value (600 ppm in diet) of the same compound?
A: 61.2%

Q: And the “% Inhibition (total ACF/colon)” value (600 ppm in diet)?
A: 60.5%

Q: And the “Total ACF/Colon (Mean ± SEM)” value (600 ppm in diet)?
A: 62 ± 4.8

Reference: patent publication US10206904B2, “Licofelone derivatives and methods of use” (The Board of Regents of the University of Oklahoma, priority 2015, dated 2019)
